The source of these data is ChEMBL document CHEMBL1150189, “Determination of cardenolides in hairy root cultures of Digitalis lanata by enzyme-linked immunosorbent assay” (J Nat Prod, 1990).

The assay is filed under the species Mus musculus. Briefly: Binding affinity to mouse Monoclonal antibody DIG 64.2B.5 by ELISA relative to digoxin.

Each structure is given as a SMILES string. A value given as a limit tells only on which side of the number the result lay.

Regarding `C[C@H]1O[C@@H](O[C@H]2[C@@H](O)C[C@H](O[C@H]3[C@@H](O)C[C@H](O[C@H]4CC[C@@]5(C)[C@H](CC[C@@H]6[C@@H]5CC[C@]5(C)[C@@H](C7=CC(=O)OC7)[C@@H](O)C[C@]65O)C4)O[C@@H]3C)O[C@@H]2C)C[C@H](O)[C@@H]1O`, the Ratio IC50 was determined as 46.
Next, `C[C@@H]1CC[C@@]2(OC1)O[C@H]1[C@@H](O)[C@H]3[C@@H]4CC[C@H]5C[C@@H](O[C@@H]6O[C@H](CO)[C@H](O[C@@H]7O[C@H](CO)C(O)[C@H](O[C@@H]8OC[C@@H](O)[C@H](O)[C@H]8O)[C@H]7O[C@@H]7O[C@H](CO)[C@H](O)[C@H](O[C@@H]8O[C@H](CO)[C@@H](O)[C@H](O)[C@H]8O)[C@H]7O)[C@H](O)[C@H]6O)[C@H](O)C[C@]5(C)[C@H]4CC[C@]3(C)[C@H]1[C@@H]2C` (stereo partly specified): over 6e+06.
For the molecule `CC(=O)O[C@H]1C[C@H](O[C@H]2[C@@H](O)C[C@H](O[C@H]3[C@@H](O)C[C@H](O[C@H]4CC[C@@]5(C)[C@H](CC[C@@H]6[C@@H]5C[C@@H](O)[C@]5(C)[C@@H](C7=CC(=O)OC7)CC[C@]65O)C4)O[C@@H]3C)O[C@@H]2C)O[C@H](C)[C@H]1O[C@@H]1O[C@H](CO)[C@@H](O)[C@H](O)[C@H]1O`, the Ratio IC50 is 1.2.
Next, `C[C@]12CC[C@H](O)C[C@H]1CC[C@@H]1[C@@H]2CC[C@]2(C)[C@@H](C3=CC(=O)OC3)[C@@H](O)C[C@]12O`: over 540000; `C[C@H]1O[C@@H](O[C@H]2[C@@H](O)C[C@H](O[C@H]3[C@@H](O)C[C@H](O[C@H]4CC[C@@]5(C)[C@H](CC[C@@H]6[C@@H]5CC[C@]5(C)[C@@H](C7=CC(=O)OC7)CC[C@]65O)C4)O[C@@H]3C)O[C@@H]2C)C[C@H](O)[C@@H]1O`: 2800; `CO[C@@H]1[C@@H](O)[C@H](O[C@H]2CC[C@@]3(C)[C@H](CC[C@@H]4[C@@H]3CC[C@]3(C)[C@@H](C5=CC(=O)OC5)[C@@H](O)C[C@]43O)C2)O[C@H](C)[C@@H]1O[C@@H]1O[C@H](CO)[C@@H](O)[C@H](O)[C@H]1O`: 16000.
Next, `C[C@]12CC[C@H](O)C[C@H]1CC[C@@H]1[C@@H]2CC[C@]2(C)[C@@H](C3=CC(=O)OC3)CC[C@]12O`: 23000; `C[C@@H]1O[C@@H](O[C@H]2C[C@@H](O)[C@]3(CO)[C@H]4[C@H](O)C[C@]5(C)[C@@H](C6=CC(=O)OC6)CC[C@]5(O)[C@@H]4CC[C@]3(O)C2)[C@H](O)[C@H](O)[C@H]1O`: over 6e+06; `C[C@H]1O[C@@H](O[C@H]2CC[C@@]3(C)[C@H](CC[C@@H]4[C@@H]3C[C@@H](O)[C@]3(C)[C@@H](C5=CC(=O)OC5)CC[C@]43O)C2)C[C@H](O)[C@@H]1O[C@H]1C[C@H](O)[C@H](O[C@H]2C[C@H](O)[C@H](O[C@@H]3O[C@H](CO)[C@@H](O)[C@H](O)[C@H]3O)[C@@H](C)O2)[C@@H](C)O1`: 1.8.
Next, `C[C@H]1OC(O)C[C@H](O)[C@@H]1O` (stereo partly specified): over 1.2e+08; `C[C@]12CC[C@H](O)C[C@H]1CC[C@@H]1[C@@H]2C[C@@H](O)[C@]2(C)[C@@H](C3=CC(=O)OC3)CC[C@]12O`: 1.2.
